Assay results: patent publication US7205150B2, “Transgenic plants over-expressing plant ADP-glucose pyrophosphatase” (Universidad Publica de Navarra, priority 2000, dated 2007)
“Also recorded” adds a separate entry of the source.

Test system: AGPPase (soluble and particulate isoforms)
Experiment: AGPPase enzymatic assay (two-step spectrophotometric determination of G1P produced from ADPG)
Assay type: biochemical, barley (Hordeum vulgare), tomato (Lycopersicon sculentum)
Settings: not given

Compound | Hydrolysis / recognition as substrate by AGPPase | Inhibition of AGPPase | Effect of typical phosphodiesterase inhibitors (reducing and chelating agents) on AGPPase activity
Nc1ncnc2c1ncn2[C@@H]1O[C@H](COP(=O)(O)OS(=O)(=O)O)[C@@H](O)[C@H]1O [APS, adenosine 5′phosphosulphate] | recognises; also recorded: catalyse the hydrolysis; also recorded: preferred substrates |  | 
Nc1nc2c(ncn2[C@@H]2O[C@H](COP(=O)(O)OP(=O)(O)O[C@H]3O[C@H](CO)[C@@H](O)[C@H](O)[C@@H]3O)[C@@H](O)[C@H]2O)c(=O)[nH]1 [GDP-mannose] | recognises |  | 
Nc1ncnc2c1ncn2[C@@H]1O[C@H](COP(=O)(O)O)[C@@H](O)[C@H]1O [AMP] | do not hydrolyse | inhibited | 
Nc1ncnc2c1ncn2[C@@H]1O[C@H](COP(=O)(O)OS(=O)(=O)O)[C@@H](OP(=O)(O)O)[C@H]1O [PAPS, 3′-phosphoadenosine 5′-phosphosulphate] | recognises; also recorded: catalyse the hydrolysis |  | 
[O]=[Mo](=[O])([O-])[O-] [molybdate] |  | strongly inhibited | 
Nc1nc2c(ncn2[C@@H]2O[C@H](COP(=O)(O)OP(=O)(O)O[C@H]3O[C@H](CO)[C@@H](O)[C@H](O)[C@H]3O)[C@@H](O)[C@H]2O)c(=O)[nH]1 [GDP-glucose] | recognise |  | 
Nc1ncnc2c1ncn2[C@@H]1O[C@H](COP(=O)(O)OP(=O)(O)O[C@H]2O[C@H](CO)[C@@H](O)[C@H](O)[C@H]2O)[C@@H](O)[C@H]1O [ADPG, ADPglucose] | catalyse the hydrolysis; also recorded: preferred substrates |  | 
arsenate |  | strongly inhibited | 
O=C[C@H](O)[C@@H](O)[C@H](O)[C@H](O)COP(=O)(O)O [G6P, glucose-6-phosphate] | do not hydrolyse |  | 
Nc1ncnc2c1ncn2[C@@H]1O[C@H](COP(=O)(O)OP(=O)(O)O)[C@@H](O)[C@H]1O [ADP] |  | inhibited | 
Nc1ncnc2c1ncn2[C@@H]1O[C@H](COP(=O)(O)OP(=O)(O)OP(=O)(O)O)[C@@H](O)[C@H]1O [ATP] |  | inhibited | 
O=C(O)[C@H](O)COP(=O)(O)O [3-phosphoglycerate] | do not hydrolyse | inhibited | 
O=[N+]([O-])c1ccc(OP(=O)(O)Oc2ccc([N+](=O)[O-])cc2)cc1 [bis-PNPP, bis-paranitrophenylphosphate] | recognise |  | 
OCCS [β-mercaptoethanol] |  |  | not affected
Nc1ncnc2c1ncn2[C@@H]1O[C@H](COP(=O)(O)OP(=O)(O)O[C@H]2O[C@H](CO)[C@@H](O)[C@H](O)[C@@H]2O)[C@@H](O)[C@H]1O [ADP-mannose] | recognises |  | 

Same assay, conditions: Km of ADP-glucose relative to this substrate

Compound | Km / affinity compared with ADP-glucose
Nc1ncnc2c1ncn2[C@@H]1O[C@H](COP(=O)(O)OS(=O)(=O)O)[C@@H](O)[C@H]1O [APS, adenosine 5′phosphosulphate] | similar
Nc1ncnc2c1ncn2[C@@H]1O[C@H](COP(=O)(O)OP(=O)(O)OC[C@H]2OC(O)[C@H](O)[C@@H]2O)[C@@H](O)[C@H]1O (some centres unmarked) [ADP-ribose] | four of five times lower

Same assay, conditions: read-out: Michaelis-Menten constant (Km)

Compound | Km [µM]
Nc1ncnc2c1ncn2[C@@H]1O[C@H](COP(=O)(O)OP(=O)(O)O[C@H]2O[C@H](CO)[C@@H](O)[C@H](O)[C@H]2O)[C@@H](O)[C@H]1O [ADPG, ADPglucose] | 500
